Source: US9447157B2, “Nitration shielding peptides and methods of use thereof” (Augusta University Research Institute, Inc., priority 2013, dated 2016)

Columns and labels:
[1] = molecular target: T1, PKG-1α (Homo sapiens, UniProt Q13976); experiment: 3-NT-Y247-PKG-1α immunoblot in transfected PASMC; assay type: cell-based; conditions: PASMC transfected with WT-PKG-1α, SIN-1 500 μM 30 min
T1 construct: transfected with an expression plasmid containing a full length WT-PKG-1α cDNA; made in house; host or cells: HEK-293T (methods); the results paragraph b527 says PASMC
T1 sequence (Q13976 2-671): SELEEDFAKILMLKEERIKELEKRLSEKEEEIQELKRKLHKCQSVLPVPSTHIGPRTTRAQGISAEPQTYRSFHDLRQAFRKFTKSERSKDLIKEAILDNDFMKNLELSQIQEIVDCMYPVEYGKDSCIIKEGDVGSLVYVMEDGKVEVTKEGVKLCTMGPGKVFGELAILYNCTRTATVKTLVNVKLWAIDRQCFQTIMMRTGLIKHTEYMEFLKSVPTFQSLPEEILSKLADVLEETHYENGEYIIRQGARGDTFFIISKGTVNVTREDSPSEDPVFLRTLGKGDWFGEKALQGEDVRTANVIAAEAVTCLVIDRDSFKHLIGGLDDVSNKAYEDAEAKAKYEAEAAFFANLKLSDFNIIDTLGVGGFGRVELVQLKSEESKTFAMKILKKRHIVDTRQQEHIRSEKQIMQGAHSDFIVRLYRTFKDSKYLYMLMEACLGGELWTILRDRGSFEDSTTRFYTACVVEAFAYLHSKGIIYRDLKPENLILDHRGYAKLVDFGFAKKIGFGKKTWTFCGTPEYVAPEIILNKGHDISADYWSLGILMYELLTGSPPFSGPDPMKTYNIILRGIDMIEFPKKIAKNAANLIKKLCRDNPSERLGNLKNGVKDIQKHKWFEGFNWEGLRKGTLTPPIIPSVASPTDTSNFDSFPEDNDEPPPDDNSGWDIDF
Experimental: The 3-NT Y247 PKG-1α specific antibody was raised against a synthetic peptide antigen ENGE(Y-NO2)[…], where Y-NO2 represent 3-nitrotyrosine. The peptide was used to immunize rabbits. Tyrosine nitration-reactive rabbit antiserum was first purified by affinity chromatography. Further purification was carried out using immunodepletion by non-nitrated peptide […] resin chromatography, after which the resulting eluate was tested for antibody specificity by immunoblotting and immune-histochemistry with fluorescent staining.
(§1) Cells were prepared as previously described (Sud, N., et al., American Journal of Physiology 293, L1444-1453 (2007); Sharma, S., et al., American Journal of Physiology 294, L46-56 (2008)). Briefly, the cellular protein extracts were prepared by homogenizing the cells in lysis buffer (50 mM Tris-HCl, pH 7.6, 0.5% Triton X-100, and 20% glycerol) containing Halt protease inhibitor cocktail (Pierce, Rockford, Ill.). The extracts were then clarified by centrifugation (20,000 g for 20 min at 4° C.). […] Reactive bands were visualized using chemi-luminescence (Pierce Laboratories, Rockford, Ill.) on a Kodak 440CF image station. The band intensity was quantified using Kodak 1D image processing software. […]
PASMC were transiently transfected with expression plasmids containing WT- or Y247FPKG-1α for 48 h. […] The fluorescent-stained sections were analyzed using confocal microscopy.

[2] = molecular target: T1, PKG-1α; experiment: PKG protein levels and PKG activity in transfected PASMC; assay type: cell-based; conditions: PASMC transfected with WT-PKG-1α, SIN-1 500 μM 48 h
Experimental: Therefore, the effect of these events were investigated in PASMC transiently transfected with expression plasmids containing WT- and Y247F-PKG-1α. The effect of nitration on pulmonary arterial smooth muscle cell (PASMC) growth and metabolism was determined. PASMC were transiently transfected with expression plasmids containing WT-PKG-1α, Y247F-PKG-1α or pDEST40 (as a control) for 20 h. Cells were then exposed or not to SIN-1 (500 μM, 48 h) and the effect on PKG protein levels (FIG. 17A) and activity determined (FIG. 17B).
as §1
Measurement of PKG Catalytic Activity Total PKG activity was determined using a non-radioactive immunoassay in cell lysates, according to the manufacturer's directions. […]

- WT-PKG-1α nitration (3-NT-Y247-PKG-1α antibody) [1]: significantly increased
- cGMP dependent increase in PKG activity, WT-PKG-1α cells [2]: attenuated
Substance: 3-morpholinosydnonimine N-ethylcarbamide [SIN-1]
